Key:
[1] = Crystalline form conversion by grinding; type: physicochemical; conditions: grinding at room temperature for about 10 minutes
[2] = Storage stability of the crystalline forms at room temperature; type: physicochemical; conditions: room temperature for six months

| Compound | crystalline form transformation on grinding [1] | stability (other crystalline forms or degraded products of impurities) [2] |
| --- | --- | --- |
| CCCCC[C@H](O)CC[C@@H]1[C@H]2Cc3cccc(OCC#N)c3C[C@H]2C[C@H]1O [Form II, 2-(((1R,2R,3aS,9aS)-2-hydroxy-1-((S)-3-hydroxyoctyl)-2,3,3a,4,9,9a-hexahydro-1H-cyclopenta[b]naphthalen-5-yl)oxy)acetonitrile] | convert to Form I crystal |  |
| CCCCC[C@H](O)CC[C@@H]1[C@H]2Cc3cccc(OCC#N)c3C[C@H]2C[C@H]1O [Form I, 2-(((1R,2R,3aS,9aS)-2-hydroxy-1-((S)-3-hydroxyoctyl)-2,3,3a,4,9,9a-hexahydro-1H-cyclopenta[b]naphthalen-5-yl)oxy)acetonitrile] |  | no other crystalline forms or degraded products of impurities |
